Data published in ChEMBL document CHEMBL1201862, “PubChem BioAssay data set” (2004).
Calls of active or inactive are those of the source.

What was measured:
[1] = viability of uninfected HEp-2 cells – cell-based, HTS, cytotoxicity control for RSV inhibitor project, dose response (AID 2410); assay type: functional; details: human respiratory syncytial virus
[2] = molecular target: T1, Sentrin-specific protease 7 (Homo sapiens, UniProt Q9BQF6); assay type: functional;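 note: Luminescence-based dose-response confirmation of ultra-high-throughput screening hits, measuring inhibition of SENP7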
T1 sequence (Q9BQF6 whole entry): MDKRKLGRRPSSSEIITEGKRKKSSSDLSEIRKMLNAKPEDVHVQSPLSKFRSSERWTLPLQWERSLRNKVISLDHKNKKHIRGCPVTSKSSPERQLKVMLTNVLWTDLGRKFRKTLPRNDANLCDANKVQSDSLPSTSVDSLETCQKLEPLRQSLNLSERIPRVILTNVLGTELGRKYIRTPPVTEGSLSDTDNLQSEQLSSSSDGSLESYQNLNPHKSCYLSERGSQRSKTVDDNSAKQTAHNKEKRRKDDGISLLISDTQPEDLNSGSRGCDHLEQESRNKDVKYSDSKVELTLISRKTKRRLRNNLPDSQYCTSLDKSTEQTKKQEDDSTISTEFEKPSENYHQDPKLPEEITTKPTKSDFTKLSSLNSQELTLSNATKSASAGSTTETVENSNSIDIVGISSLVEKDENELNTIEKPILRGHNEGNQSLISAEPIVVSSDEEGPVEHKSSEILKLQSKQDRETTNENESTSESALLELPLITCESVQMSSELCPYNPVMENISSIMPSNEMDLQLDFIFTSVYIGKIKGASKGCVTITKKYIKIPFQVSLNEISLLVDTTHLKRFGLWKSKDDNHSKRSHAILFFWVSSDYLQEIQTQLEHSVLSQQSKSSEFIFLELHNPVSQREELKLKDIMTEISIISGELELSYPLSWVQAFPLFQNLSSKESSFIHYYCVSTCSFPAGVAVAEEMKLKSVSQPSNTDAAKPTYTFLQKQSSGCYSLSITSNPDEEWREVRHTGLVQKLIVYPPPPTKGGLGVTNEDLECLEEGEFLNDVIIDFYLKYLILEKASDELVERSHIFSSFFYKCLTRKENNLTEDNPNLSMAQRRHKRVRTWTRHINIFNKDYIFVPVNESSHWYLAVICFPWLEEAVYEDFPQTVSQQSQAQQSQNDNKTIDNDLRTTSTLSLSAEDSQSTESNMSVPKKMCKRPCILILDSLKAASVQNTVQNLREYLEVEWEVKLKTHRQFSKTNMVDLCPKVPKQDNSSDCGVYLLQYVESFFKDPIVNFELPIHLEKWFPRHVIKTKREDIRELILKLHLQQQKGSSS

[3] = A Cell Based Secondary Assay To Explore Cytotoxicity of Compounds that Sensitize Mycobacterium Tuberculosis to Beta-Lactam Antibiotics.; assay type: functional
[4] = molecular target: T2, Sentrin-specific protease 6 (Homo sapiens, UniProt Q9GZR1); assay type: functional;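 note: Luminescence-based dose-response confirmatory assay of SENP6 inhibition, following up an ultra-high-throughput screen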
T2 sequence (Q9GZR1 whole entry): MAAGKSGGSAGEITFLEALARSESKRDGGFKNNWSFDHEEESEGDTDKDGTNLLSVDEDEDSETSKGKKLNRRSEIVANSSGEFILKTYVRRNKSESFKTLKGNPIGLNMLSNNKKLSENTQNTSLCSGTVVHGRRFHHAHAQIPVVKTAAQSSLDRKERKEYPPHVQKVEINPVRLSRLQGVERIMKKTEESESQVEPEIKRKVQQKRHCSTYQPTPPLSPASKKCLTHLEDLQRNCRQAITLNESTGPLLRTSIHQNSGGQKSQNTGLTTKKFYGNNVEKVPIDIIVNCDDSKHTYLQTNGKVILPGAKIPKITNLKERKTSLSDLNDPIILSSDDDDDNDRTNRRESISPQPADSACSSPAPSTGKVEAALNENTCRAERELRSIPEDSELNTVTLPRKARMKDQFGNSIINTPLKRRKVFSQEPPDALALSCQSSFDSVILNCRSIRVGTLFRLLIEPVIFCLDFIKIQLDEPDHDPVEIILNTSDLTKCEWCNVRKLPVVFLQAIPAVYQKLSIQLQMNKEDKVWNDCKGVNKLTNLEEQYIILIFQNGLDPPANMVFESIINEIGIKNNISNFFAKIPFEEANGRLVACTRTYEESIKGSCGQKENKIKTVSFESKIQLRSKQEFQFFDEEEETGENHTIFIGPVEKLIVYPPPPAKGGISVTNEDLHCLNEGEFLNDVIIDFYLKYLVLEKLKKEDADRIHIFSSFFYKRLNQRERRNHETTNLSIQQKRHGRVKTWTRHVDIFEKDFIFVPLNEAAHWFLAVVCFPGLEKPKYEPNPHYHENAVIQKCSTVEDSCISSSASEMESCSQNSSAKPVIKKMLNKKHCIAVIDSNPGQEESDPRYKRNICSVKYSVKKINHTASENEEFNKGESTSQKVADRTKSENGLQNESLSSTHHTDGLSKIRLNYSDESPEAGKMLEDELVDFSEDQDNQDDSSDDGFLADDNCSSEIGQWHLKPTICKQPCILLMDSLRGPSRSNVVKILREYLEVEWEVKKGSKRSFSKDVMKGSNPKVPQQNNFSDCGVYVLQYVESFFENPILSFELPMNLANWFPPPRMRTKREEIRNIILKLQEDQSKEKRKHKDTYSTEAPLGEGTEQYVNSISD

Caspase-3 = molecular target: T3, Caspase-3 (Homo sapiens, UniProt P42574); assay type: functional;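 note: Dose-response selectivity test against caspase-3 for candidate inhibitors of sentrin-specific proteases (SENPs)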
T3 sequence (P42574 whole entry): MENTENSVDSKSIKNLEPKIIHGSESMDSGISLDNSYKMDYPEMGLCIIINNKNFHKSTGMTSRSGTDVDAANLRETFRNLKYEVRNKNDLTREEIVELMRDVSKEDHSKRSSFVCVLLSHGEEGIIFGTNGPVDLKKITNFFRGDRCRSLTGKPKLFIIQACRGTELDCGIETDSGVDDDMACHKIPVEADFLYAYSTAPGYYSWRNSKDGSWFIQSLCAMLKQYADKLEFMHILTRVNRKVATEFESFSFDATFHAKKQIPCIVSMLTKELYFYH

[5] = molecular target: T4, Sentrin-specific protease 8 (Homo sapiens, UniProt Q96LD8); assay type: functional;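 note: luminescence read-out of SENP8 inhibition, dose-response confirmation following an ultra-high-throughput screen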
T4 sequence (Q96LD8 whole entry): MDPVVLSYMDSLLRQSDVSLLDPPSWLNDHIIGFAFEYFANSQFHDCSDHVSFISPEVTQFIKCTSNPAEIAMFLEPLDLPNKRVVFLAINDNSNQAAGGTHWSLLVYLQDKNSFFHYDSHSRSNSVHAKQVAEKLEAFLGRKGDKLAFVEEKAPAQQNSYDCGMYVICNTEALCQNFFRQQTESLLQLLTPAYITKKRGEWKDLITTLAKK

Large T antigen = Large T antigen (Simian virus 40, UniProt P03070); assay type: functional, Betapolyomavirus macacae;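 note: Confirmatory-stage PubChem screen for compounds that inhibit SV40 T antigen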
Large T antigen, sequence (P03070 whole entry): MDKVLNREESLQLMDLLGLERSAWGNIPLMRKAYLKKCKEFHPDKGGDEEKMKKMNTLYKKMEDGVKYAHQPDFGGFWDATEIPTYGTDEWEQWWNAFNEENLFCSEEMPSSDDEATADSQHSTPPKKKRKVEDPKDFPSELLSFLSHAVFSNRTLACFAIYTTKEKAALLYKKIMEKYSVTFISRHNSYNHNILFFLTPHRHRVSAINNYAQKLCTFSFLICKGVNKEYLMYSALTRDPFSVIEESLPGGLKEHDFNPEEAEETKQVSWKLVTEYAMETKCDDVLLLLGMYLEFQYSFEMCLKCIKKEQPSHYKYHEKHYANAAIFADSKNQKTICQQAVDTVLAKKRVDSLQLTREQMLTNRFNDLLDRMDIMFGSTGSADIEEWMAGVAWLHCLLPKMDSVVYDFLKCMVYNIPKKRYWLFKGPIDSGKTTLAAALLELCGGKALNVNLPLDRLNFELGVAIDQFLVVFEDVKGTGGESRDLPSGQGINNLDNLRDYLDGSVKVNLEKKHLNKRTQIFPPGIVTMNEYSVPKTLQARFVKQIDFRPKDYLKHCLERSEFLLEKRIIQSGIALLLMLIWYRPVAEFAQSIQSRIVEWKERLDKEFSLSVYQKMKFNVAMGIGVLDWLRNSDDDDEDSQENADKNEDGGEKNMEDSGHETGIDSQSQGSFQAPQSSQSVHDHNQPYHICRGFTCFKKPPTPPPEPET

[6] = molecular target: T5, Rac GTPase-activating protein 1 (Homo sapiens, UniProt Q9H0H5); assay: blockers of MgcRacGAP-driven Rac1 GTP hydrolysis – biochemical, ADP Hunter fluorescence, primary and confirmatory, confirmation (AID 624330); assay type: functional
T5 sequence (Q9H0H5 whole entry): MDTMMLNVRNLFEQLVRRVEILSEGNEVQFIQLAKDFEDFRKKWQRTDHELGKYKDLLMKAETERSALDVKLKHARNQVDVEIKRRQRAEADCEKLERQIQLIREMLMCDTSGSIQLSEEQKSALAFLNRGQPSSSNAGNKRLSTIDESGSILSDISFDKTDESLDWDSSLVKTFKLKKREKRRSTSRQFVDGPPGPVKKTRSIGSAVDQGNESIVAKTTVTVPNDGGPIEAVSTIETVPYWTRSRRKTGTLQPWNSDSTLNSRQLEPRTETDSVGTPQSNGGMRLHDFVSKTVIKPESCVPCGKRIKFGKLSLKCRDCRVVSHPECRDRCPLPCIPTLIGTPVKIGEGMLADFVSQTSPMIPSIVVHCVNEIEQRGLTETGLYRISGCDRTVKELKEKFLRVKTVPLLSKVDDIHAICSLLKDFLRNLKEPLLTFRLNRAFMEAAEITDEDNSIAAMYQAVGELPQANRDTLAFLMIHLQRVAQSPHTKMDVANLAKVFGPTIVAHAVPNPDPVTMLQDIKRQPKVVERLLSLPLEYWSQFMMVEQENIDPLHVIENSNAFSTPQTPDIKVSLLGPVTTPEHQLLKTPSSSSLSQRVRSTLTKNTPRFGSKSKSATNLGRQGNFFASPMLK

SN12K1 = assay: cells; assay type: functional; details: Homo sapiens

CSc1nc(C(=O)N2CCc3c([nH]c4ccccc34)C2c2ccccn2)cs1 (stereo not given)
CC50 [1]: 30.1 µM (active)

Cc1ccc(O)c(-c2cc(-c3ccccc3F)[nH]n2)c1
IC50 [2]: 3.4 µM (active)
CC50 [3]: > 40 µM (active)
IC50 [4]: 21.9 µM (active)
IC50 (Caspase-3): 31.9 µM (active)
IC50 [5]: 4.59 µM (active)

CCOC(=O)C1=C(C)N(c2ccccc2)C(=O)/C1=C\c1ccc(O)c(OC)c1
IC50 (Large T antigen): 47.1 µM (active)

CCOC(=O)C1C(=O)C=C(c2ccc(C)cc2)CC1c1ccccc1 (stereo not given)
CC50 [1]: 35.4 µM (active)

COc1ccc(Nc2nc(-c3cccs3)nc3ccccc23)c(OC)c1
CC50 [1]: 32.9 µM (active)

N=C1/C(=N\Nc2ccccc2F)C(=O)NN1c1ccccc1
IC50 [2]: 2.52 µM (active)
IC50 [4]: 2.09 µM (active)
IC50 (Caspase-3): 16.4 µM (active)
IC50 [5]: > 100 µM (inactive)

COc1ccc(-c2nc(O)c3cnccn23)cc1
IC50 (Large T antigen): 24.2 µM (active)

Cc1ccc(-n2nc3c(=O)n(CCCC(=O)NCc4cccc(F)c4)nc(C)c3c2C)cc1
CC50 [1]: > 50 µM (active)

CCNc1nc(NCC)nc(N/N=C/c2ccc(O)c(OC)c2)n1
IC50 (Large T antigen): 11 µM (active)

COc1ccc(/C=N\NC(=O)c2ccc(O)nn2)cc1O
IC50 (Large T antigen): 14.3 µM (active)
IC50 [6]: 26.5 µM (active)

CCCOC(=O)c1cc(-c2ccc(C=O)o2)ccc1Cl
CC50 [1]: 36.9 µM (active)

C=C(C)c1sc(-c2ccc(Cl)cc2)nc1C
IC50 [2]: 6.67 µM (active)
IC50 [4]: 21.4 µM (active)
IC50 (Caspase-3): 13.4 µM (active)
IC50 [5]: 69.1 µM (active)

Nc1nc2ccccc2n1/N=C/c1ccc(Br)cc1
IC50 [2]: 4.21 µM (active)
IC50 [4]: 5.96 µM (active)
IC50 (Caspase-3): 16.1 µM (active)
IC50 [5]: 5.66 µM (active)

CC(C)(c1cc(Br)c(O)c(Br)c1)c1cc(Br)c(O)c(Br)c1
CC50 [1]: 24.9 µM (active)

Nc1ccn(C2C=C(CO)C(O)C2O)c(=O)c1 (stereo not given)
GI50 (SN12K1): > 625 µM (inactive)

CCc1nnc(S)n1/N=C/c1ccc(N(C)c2ccccc2)cc1
CC50 [1]: 28.1 µM (active)
